Reference: patent US20020082452A1, “alpha-sulfin-and alpha-sulfonamino acid amides” (priority 1998, published 2002)

Columns and labels:
Format in all cases: in vivo
[1] = tested on: Phytophthora; assay: D-2: Action against Phytophthora on tomato plants (residual-protective and systemic action); details: spray mixture 0.02% active ingredient (sprayed or watered), evaluated after 4-5 days at 90-100% relative humidity and 20° C.
Procedure: D-2: Action Against Phytophthora on Tomato Plants
(§1) a) Residual-Protective Action
After a cultivation period of 3 weeks, tomato plants are sprayed with a spray mixture (0.02% active ingredient) prepared from a wettable powder formulation of the test compound. After 48 hours, the treated plants are infected with a sporangia suspension of the fungus. Fungus infestation is evaluated after incubation of the infected plants for 5 days at 90-100% relative humidity and 20° C.
After a cultivation period of 3 weeks, tomato plants are watered with a spray mixture (0.02% active ingredient based on the volume of the soil) prepared from a wettable powder formulation of the test compound. […] After 96 hours, the treated plants are infected with a sporangia suspension of the fungus. Fungus infestation is evaluated after incubation of the infected plants for 4 days at 90-100% relative humidity and 20° C. […] Compounds A1.02, A1.03, A1.04, A1.03, A1.05, A1.06, A1.07, A1.09, A1.10, A1.13, A1.14, A1.15, A1.16, A1.21, A1.23.

[2] = tested on: Plasmopara viticola; assay: D-1: Action against Plasmopara viticola on vines (residual-protective and residual-curative action); details: vine seedlings, spray mixture 0.02% active ingredient, evaluated after 6 days at 95-100% relative humidity and 20° C.
Procedure: D-1: Action against Plasmopara viticola on Vines a) Residual-Protective Action
Vine seedlings are sprayed at the 4- to 5-leaf stage with a spray mixture (0.02% active ingredient) prepared from a wettable powder formulation of the test compound. After 24 hours, the treated plants are infected with a sporangia suspension of the fungus. Fungus infestation is evaluated after incubation for 6 days at 95-100% relative humidity and 20° C. […]
b) Residual-Curative Action
Vine seedlings are infected at the 4- to 5-leaf stage with a sporangia suspension of the fungus. After incubation for 24 hours in a humidity chamber at 95-100% relative humidity and 20° C., the infected plants are dried and sprayed with a spray mixture (0.02% active ingredient) prepared from a wettable powder formulation of the test compound. After the spray coating has dried, the treated plants are placed in the humidity chamber again. Fungus infestation is evaluated 6 days after infection. […] Compounds A1.02, A1.03, A1.04, A1.03, A1.5, A1.06, A1.07, A1.09, A1.10, A1.13, A1.14, A1.15, A1.16, A1.21, A1.23.

[3] = tested on: Phytophthora; assay: D-3: Action against Phytophthora on potato plants (residual-protective and systemic action); details: potato plants (Bintje variety), spray mixture 0.02% active ingredient (sprayed or watered), evaluated after 4 days at 90-100% relative humidity and 20° C.
Procedure: D-3 Action Against Phytophthora on Potato Plants
as §1
2-3 week old potato plants (Bintje variety) are sprayed with a spray mixture (0.02% active ingredient) prepared from a wettable powder formulation of the test compound. After 48 hours, the treated plants are infected with a sporangia suspension of the fungus. Fungus infestation is evaluated after incubation of the infected plants for 4 days at 90-100% relative humidity and 20° C.
2-3 week old potato plants (Bintje variety) are watered with a spray mixture (0.02% active ingredient based on the volume of the soil) prepared from a wettable powder formulation of the test compound. […] After 48 hours, the treated plants are infected with a sporangia suspension of the fungus. Fungus infestation is evaluated after incubation of the infected plants for 4 days at 90-100% relative humidity and 20° C. Fungal infestation is effectively controlled with compounds of Tables 1 to 37. Compounds A1.02, A1.03, A1.04, A1.03, A1.05, A1.06, A1.07, A1.09, A1.10, A1.13, A1.14, A1.15, A1.16, A1.21, A1.23.

Measured: Fungus infestation

CCS(=O)(=O)N[C@H](C(=O)NCCc1ccc(OCCOc2cccc(C)c2)c(OC)c1)C(C)C [Compound A1.25]
completely inhibit fungal infestation: all assays above

CCS(=O)(=O)N[C@H](C(=O)NCCc1ccc(OCCOc2ccc(Cl)cc2)c(OC)c1)C(C)C [Compound A1.13]
completely inhibit fungal infestation: all assays above

COc1cc(CCNC(=O)[C@@H](NS(C)(=O)=O)C(C)C)ccc1OCCOc1ccc(Cl)c(Cl)c1 [Compound A1.75]
completely inhibit fungal infestation: all assays above

CCS(=O)(=O)N[C@H](C(=O)NCCc1ccc(OCCOc2cccc(F)c2)c(OC)c1)C(C)C [Compound A1.23]
completely inhibit fungal infestation: all assays above

COc1cc(CCNC(=O)[C@@H](NS(C)(=O)=O)C(C)C)ccc1OCCOc1ccc(F)cc1 [Compound A1.02]
completely inhibit fungal infestation: all assays above

COc1cc(CCNC(=O)[C@@H](NS(C)(=O)=O)C(C)C)ccc1OCCSc1ccc(Cl)cc1 [Compound A1.78]
completely inhibit fungal infestation: all assays above

COc1cc(CCNC(=O)C(NS(C)(=O)=O)C(C)C)ccc1OC(C)COc1ccc(Cl)cc1 (mixture of isomers) [Compound A1.80]
completely inhibit fungal infestation: all assays above

CC[C@H](NS(=O)(=O)CC)C(=O)NCCc1ccc(OCCOc2ccc(Cl)cc2)c(OC)c1 [Compound A1.15]
completely inhibit fungal infestation: all assays above

CCC[C@H](NS(=O)(=O)CC)C(=O)NCCc1ccc(OCCOc2ccc(F)cc2)c(OC)c1 [Compound A1.04]
completely inhibit fungal infestation: all assays above

CCC[C@H](NS(=O)(=O)CC)C(=O)NCCc1ccc(OCCOc2ccc(Cl)cc2)c(OC)c1 [Compound A1.16]
completely inhibit fungal infestation: all assays above

CCS(=O)(=O)N[C@H](C(=O)NCCc1ccc(OC/C=C/c2ccccc2F)c(OC)c1)C(C)C [Compound A2.09]
completely inhibit fungal infestation: all assays above

COc1cc(CCNC(=O)[C@@H](NS(C)(=O)=O)C(C)C)ccc1OC/C=C/c1ccc(Br)cc1 [Compound A2.16]
completely inhibit fungal infestation: all assays above

CCC[C@H](NS(=O)(=O)CC)C(=O)NCCc1ccc(OCCOc2ccccc2)c(OC)c1 [Compound A1.09]
completely inhibit fungal infestation: all assays above

COc1cc(CCNC(=O)[C@@H](NS(C)(=O)=O)C(C)C)ccc1OCCOc1ccccc1 [Compound A1.07]
completely inhibit fungal infestation: all assays above

CCS(=O)(=O)N[C@H](C(=O)NCCc1ccc(OCC=Cc2ccc(Cl)cc2)c(OC)c1)C1CCC1 [Compound A1.107]
completely inhibit fungal infestation: all assays above

CCS(=O)(=O)N[C@H](C(=O)NCCc1ccc(OC/C=C\c2ccccc2)c(OC)c1)C(C)C [Compound A3.02]
completely inhibit fungal infestation: all assays above

CCS(=O)(=O)N[C@H](C(=O)NCCc1ccc(OCCOc2ccccc2)c(OC)c1)C(C)C [Compound A1.06]
completely inhibit fungal infestation: all assays above

COc1cc(CCNC(=O)[C@@H](NS(C)(=O)=O)C(C)C)ccc1OC/C=C/c1ccccc1F [Compound A2.10]
completely inhibit fungal infestation: all assays above

CC[C@H](NS(=O)(=O)CC)C(=O)NCCc1ccc(OCCOc2ccccc2)c(OC)c1 [Compound A1.10]
completely inhibit fungal infestation: all assays above

COc1cc(CCNC(=O)[C@@H](NS(C)(=O)=O)C(C)C)ccc1OCCOc1ccc(Cl)cc1 [Compound A1.14]
completely inhibit fungal infestation: all assays above

C#CCC(NS(=O)(=O)CC)C(=O)NCCc1ccc(OCC=Cc2ccc(Cl)cc2)c(OC)c1 (racemic) [Compound A1.108]
completely inhibit fungal infestation: all assays above

COc1cc(CCNC(=O)[C@@H](NS(=O)(=O)N(C)C)C(C)C)ccc1OCCOc1ccc(F)cc1 [Compound A1.03]
completely inhibit fungal infestation: all assays above

CCS(=O)(=O)N[C@H](C(=O)NCCc1ccc(OC/C=C/c2ccc(Cl)cc2)c(OC)c1)C(C)C [Compound A2.03]
completely inhibit fungal infestation: all assays above
